Source: patent US20080255155A1, “KINASE INHIBITORS AND USES THEREOF” (priority 2006, published 2008)

Legend:
[1] = target: T1, recombinant human c-Met/HGF receptor (Homo sapiens, UniProt P08581); test: In vitro receptor tyrosine kinase assay, c-Met (DELFIA); format: biochemical; conditions: ATP 10 uM, enzyme 25 nM; read-out: Potency in enzyme assays Cmet
T1 construct: His tag; made in house; host or cells: Hi-5 cells (Trichoplusia ni), recombinant baculovirus
From the text: (§1) These tests measure the ability of compounds to inhibit the enzymatic activity of recombinant human c-Met/HGF receptor and VEGF receptor enzymatic activity.
A 1.3-kb cDNA corresponding to the intracellular domain of c-Met or c-Met IC (Genbank accession number NP000236-1 amino acid […]) is cloned into the BamHI/XhoI sites of the pBlueBacHis2A vector (Invitrogen) for the production of a histidine-tagged version of that enzyme. This construct is used to generate recombinant baculovirus using the Bac-N-Blue™ system according to the manufacturer's instructions (Invitrogen).
(§2) The c-Met IC protein is expressed in Hi-5 cells (Trichoplusia Ni) upon infection with recombinant baculovirus construct. Briefly, Hi-5 cells grown in suspension and maintained in serum-free medium (Sf900 II supplemented with gentamycin) at a cell density of about 2×10^6 cells/ml are infected with the above-mentioned viruses at a multiplicity of infection (MOI) of 0.2 during 72 hours at 27° C. with agitation at 120 rpm on a rotary shaker. Infected cells are harvested by centrifugation at 398 g for 15 min. Cell pellets are frozen at −80° C. until purification is performed.
All steps described in cell extraction and purification are performed at 4° C. Frozen Hi-5 cell pellets infected with the C-Met IC recombinant baculovirus are thawed and gently resuspended in Buffer A (20 mM Tris pH 8.0, 10% glycerol, 1 μg/ml pepstatin, 2 μg/ml Aprotinin and leupeptin, 50 μg/ml PMSF, 50 μg/ml TLCK and 10 μM E64, 0.5 mM DTT and 1 mM Levamisole) using 3 ml of buffer per gram of cells. The suspension is Dounce homogenized after which it is centrifuged at 22500 g, 30 min., 4° C. The supernatant (cell extract) is used as starting material for purification of c-Met IC.
The supernatant is loaded onto a QsepharoseFF column (Amersham Biosciences) equilibrated with Buffer B (20 mM Tris pH 8.0, 10% glycerol) supplemented with 0.05M NaCl. Following a ten column volume (CV) wash with equilibration buffer, bound proteins are eluted with a 5 CV salt linear gradient spanning from 0.05 to 1M NaCl in Buffer B. Typically, the conductivity of selected fractions rank between 6.5 and 37 mS/cm. This Qsepharose eluate has an estimated NaCl concentration of 0.33M and is supplemented with a 5M NaCl solution in order to increase NaCl concentration at 0.5M and also with a 5M Imidazole (pH 8.0) solution to achieve a final imidazole concentration of 15 mM. This material is loaded onto a HisTrap affinity column (GE Healthcare) equilibrated with Buffer C (50 mM NaPO4 pH 8.0, 0.5M NaCl, 10% glycerol) supplemented with 15 mM imidazole. After a 10 CV wash with equilibration buffer and an 8 CV wash with buffer C+40 mM imidazole, bound proteins are eluted with an 8 CV linear gradient (15 to 500 mM) of imidazole in buffer C. C-Met IC enriched fractions from this chromatography step are pooled based on SDS-PAGE analysis. This pool of enzyme undergoes buffer exchange using PD-10 column (GE Healthcare) against buffer D (25 mM HEPES pH 7.5, 0.1M NaCl, 10% glycerol and 2 mM β-mercaptoethanol). Final C-Met IC protein preparations concentrations are about 0.5 mg/ml with purity approximating 80%. Purified c-Met IC protein stocks are supplemented with BSA at 1 mg/ml, aliquoted and frozen at −80° C. prior to use in enzymatic assay.
Inhibition of c-Met/HGF receptor and VEGFR/KDR is measured in a DELFIA™ assay (Perkin Elmer). The substrate poly(Glu4,Tyr) is immobilized onto black high-binding polystyrene 96-well plates. The coated plates are washed and stored at 4° C. During the assay, enzymes are pre-incubated with inhibitor and Mg-ATP on ice in polypropylene 96-well plates for 4 minutes, and then transferred to the coated plates. The subsequent kinase reaction takes place at 30° C. for 10-30 minutes. ATP concentrations in the assay are 10 uM for C-Met (5× the Km) and 0.6 uM for VEGFR/KDR (2× the Km). Enzyme concentration is 25 nM (C-Met) or 5 nM (VEGFR/KDR). […]

VEGF receptor KDR = target: T2, VEGF receptor KDR (Homo sapiens, UniProt P35968); test: In vitro receptor tyrosine kinase assay, VEGF receptor KDR (DELFIA); format: biochemical; conditions: ATP 0.6 uM, enzyme 5 nM; read-out: Potency in enzyme assays VEGF
T2 construct: made in house; host or cells: Sf9 cells (Spodoptera frugiperda), recombinant baculovirus
From the text: as §1
In the case of VEGF receptor KDR a 1.6-kb cDNA corresponding to the catalytic domain of VEGFR2 or KDR (Genbank accession number AF035121 amino acid 806 to 1356) is cloned into the Pst I site of the pDEST20 Gateway vector (Invitrogen) for the production of a GST-tagged version of that enzyme. This construct is used to generate recombinant baculovirus using the Bac-to-Bac system according to the manufacturer's instructions (Invitrogen).
as §2, with “GST-VEGFR2806-1356” for “c-Met IC”, “Sf9” for “Hi-5”, “(Spodoptera frugiperda)” for “(Trichoplusia Ni)”, “0.1” for “0.2”
All steps described in cell extraction and purification are performed at 4° C. Frozen Sf9 cell pellets infected with the GST-VEGFR2806-1356 recombinant baculovirus re thawed and gently resuspended in Buffer A (PBS pH 7.3 supplemented with 1 μg/ml pepstatin, 2 μg/ml Aprotinin and leupeptin, 50 μg/ml PMSF, 50 μg/ml TLCK and 10 μM E64 and 0.5 mM DTT) using 3 ml of buffer per gram of cells. Suspension is Dounce homogenized and 1% Triton X-100 is added to the homogenate after which it is centrifuged at 22500 g, 30 min., 4° C. The supernatant (cell extract) is used as starting material for purification of GST-VEGFR2806-1356.
The supernatant is loaded onto a GST-agarose column (Sigma) equilibrated with PBS pH 7.3. Following a four column volume (CV) wash with PBS pH 7.3+1% Triton X-100 and 4 CV wash with buffer B (50 mM Tris pH 8.0, 20% glycerol and 100 mM NaCl), bound proteins are step eluted with 5 CV of buffer B supplemented with 5 mM DTT and 15 mM glutathion. GST-VEGFR2806-1356 enriched fractions from this chromatography step are pooled based on U.V. trace i.e. fractions with high O.D^-280- Final GST-VEGFR2806-1356 protein preparations concentrations are about 0.7 mg/ml with purity approximating 70%. Purified GST-VEGFR2806-1356 protein stocks are aliquoted and frozen at −80° C. prior to use in enzymatic assay.
Inhibition of c-Met/HGF receptor and VEGFR/KDR is measured in a DELFIA™ assay (Perkin Elmer). The substrate poly(Glu4,Tyr) is immobilized onto black high-binding polystyrene 96-well plates. The coated plates are washed and stored at 4° C. During the assay, enzymes are pre-incubated with inhibitor and Mg-ATP on ice in polypropylene 96-well plates for 4 minutes, and then transferred to the coated plates. The subsequent kinase reaction takes place at 30° C. for 10-30 minutes. ATP concentrations in the assay are 10 uM for C-Met (5× the Km) and 0.6 uM for VEGFR/KDR (2× the Km). Enzyme concentration is 25 nM (C-Met) or 5 nM (VEGFR/KDR). After incubation, the kinase reactions are quenched with EDTA and the plates are washed. Phosphorylated product is detected by incubation with Europium-labeled anti-phosphotyrosine MoAb. After washing the plates, bound MoAb is detected by time-resolved fluorescence in a Gemini SpectraMax reader (Molecular Devices). Compounds are evaluated over a range of concentrations and IC50's (concentration of compounds giving 50% inhibition of enzymatic activity) are determined.

A549 = A549 wound healing inhibition; conditions: Homo sapiens; A549 cells; read-out: Potency in cell-based assays A549 wound healing inhibition
DU145 = DU145 scattering inhibition; conditions: Homo sapiens, DU-145; DU145 cells; read-out: Potency in cell-based assays DU145 scattering inhibition

T2 sequence (P35968 806-1356): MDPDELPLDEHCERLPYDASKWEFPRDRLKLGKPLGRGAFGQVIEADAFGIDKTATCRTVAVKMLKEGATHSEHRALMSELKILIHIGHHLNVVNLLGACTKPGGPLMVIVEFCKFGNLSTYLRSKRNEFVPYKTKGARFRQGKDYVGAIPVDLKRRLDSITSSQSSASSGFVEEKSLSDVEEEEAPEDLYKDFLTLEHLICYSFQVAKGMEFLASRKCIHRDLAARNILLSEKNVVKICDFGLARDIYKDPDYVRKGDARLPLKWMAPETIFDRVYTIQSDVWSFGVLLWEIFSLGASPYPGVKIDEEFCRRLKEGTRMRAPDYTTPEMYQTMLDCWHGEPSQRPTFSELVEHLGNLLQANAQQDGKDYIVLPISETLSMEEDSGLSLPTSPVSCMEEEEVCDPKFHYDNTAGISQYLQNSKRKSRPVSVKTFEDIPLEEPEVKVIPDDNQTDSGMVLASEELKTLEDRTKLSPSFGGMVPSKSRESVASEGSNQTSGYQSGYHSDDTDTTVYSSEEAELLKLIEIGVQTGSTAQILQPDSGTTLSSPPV
T1 sequence (P08581 1078-1337): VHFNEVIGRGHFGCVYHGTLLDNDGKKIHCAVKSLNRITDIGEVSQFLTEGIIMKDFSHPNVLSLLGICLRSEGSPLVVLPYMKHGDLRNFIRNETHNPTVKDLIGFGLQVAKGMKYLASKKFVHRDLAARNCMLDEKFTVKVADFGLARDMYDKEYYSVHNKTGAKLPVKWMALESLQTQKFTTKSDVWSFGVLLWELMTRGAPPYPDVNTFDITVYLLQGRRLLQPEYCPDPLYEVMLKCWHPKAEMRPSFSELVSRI

SMILES | IC50 [1] [nM] | IC50 (VEGF receptor KDR) [nM] | IC50 (A549) [nM] | IC50 (DU145) [nM]
O=C(Nc1ccc(Oc2ccncc2)c(F)c1)N1CCN(c2ccccc2Cl)C1=O [Compound 21h, 3-(2-chlorophenyl)-N-(3-fluoro-4-(pyridin-4-yloxy)phenyl)-2-oxoimidazolidine-1-carboxamide] | 500 to 1000 | ≥ 1000 | 1000 to 5000 | ≥ 1000
O=C(CC(Nc1ccc(F)cc1)C(F)(F)F)Nc1ccc(Oc2cc(NC(=O)N3CCCC3)ncn2)c(F)c1 (stereo not drawn) [Compound 9a, N-(6-(2-Fluoro-4-(4,4,4-trifluoro-3-(4-fluorophenylamino)butanamido)phenoxy)pyrimidin-4-yl)pyrrolidine-1-carboxamide] | ≥ 1000 | ≥ 1000 | 1000 to 5000 | 5000 to 10000
O=C(Nc1cc(Oc2ccc(NC(=O)N3CCN(c4ccc(F)cc4)C3=O)cc2F)ccn1)N1CCCC1 [Compound 18b, N-(3-fluoro-4-(2-(pyrrolidine-1-carboxamido)pyridin-4-yloxy)phenyl)-3-(4-fluorophenyl)-2-oxoimidazolidine-1-carboxamide] | < 250 | < 250 | ≥ 1000 | ≥ 1000
